{"source": "ChEMBL document CHEMBL1201862", "about": "“PubChem BioAssay data set” (2004)", "key": {"[1]": {"molecular_target": "T1, Sentrin-specific protease 8 (Homo sapiens, UniProt Q96LD8)", "T1 sequence (Q96LD8 whole entry)": "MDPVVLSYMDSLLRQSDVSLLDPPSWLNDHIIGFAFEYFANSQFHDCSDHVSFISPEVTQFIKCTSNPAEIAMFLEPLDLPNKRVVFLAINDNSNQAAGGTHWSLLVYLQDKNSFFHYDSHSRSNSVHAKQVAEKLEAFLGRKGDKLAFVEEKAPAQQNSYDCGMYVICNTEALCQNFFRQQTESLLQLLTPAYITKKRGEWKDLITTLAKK", "assay_type": "functional"}, "[2]": {"molecular_target": "T1, Sentrin-specific protease 8", "assay_type": "functional", "remark": "listed apart in the source"}, "[3]": {"assay": "IOSE-T80 ovarian epithelial cell cytotoxicity, dose response, cytotoxicity control for PAX8 inhibitor project, plate reader, dry powder samples (AID 743045)", "assay_type": "functional, cell-based"}, "cells [4]": {"assay": "cells", "assay_type": "functional, cell-based"}, "[5]": {"molecular_target": "ATP-dependent molecular chaperone HSP82 (Candida albicans (strain WO-1) (Yeast), UniProt C4YTQ8)", "sequence (C4YTQ8 whole entry)": "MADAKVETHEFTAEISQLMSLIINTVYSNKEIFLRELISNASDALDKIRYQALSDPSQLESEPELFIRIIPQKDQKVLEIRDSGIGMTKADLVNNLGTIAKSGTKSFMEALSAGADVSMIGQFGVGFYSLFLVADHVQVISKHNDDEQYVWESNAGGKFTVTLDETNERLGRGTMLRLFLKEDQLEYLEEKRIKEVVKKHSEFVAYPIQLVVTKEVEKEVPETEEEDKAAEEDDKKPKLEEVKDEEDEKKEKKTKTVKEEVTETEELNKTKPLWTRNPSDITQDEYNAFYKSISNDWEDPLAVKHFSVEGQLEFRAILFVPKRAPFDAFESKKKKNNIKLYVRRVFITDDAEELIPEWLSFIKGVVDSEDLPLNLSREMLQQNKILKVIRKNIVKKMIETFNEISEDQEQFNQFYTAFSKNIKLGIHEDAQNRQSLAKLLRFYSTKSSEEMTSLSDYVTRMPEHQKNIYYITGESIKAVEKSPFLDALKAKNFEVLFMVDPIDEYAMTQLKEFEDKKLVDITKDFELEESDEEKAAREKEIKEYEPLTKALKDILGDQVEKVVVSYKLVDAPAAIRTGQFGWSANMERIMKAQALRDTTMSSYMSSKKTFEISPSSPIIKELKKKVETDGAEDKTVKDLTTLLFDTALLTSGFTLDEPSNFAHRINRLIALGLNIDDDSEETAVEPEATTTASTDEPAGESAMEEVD", "assay": "loss of DOC-induced GRE-beta-galactosidase reporter signal, dose response, Hsp90 inhibitor project, S. cerevisiae, luminescence (AID 2400);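 further: beta-galactosidase luminescence from glucocorticoid response element reporter as proxy for Hsp90 function; inhibitor potency where signal loss means Hsp90 inhibition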", "assay_type": "functional, cell-based"}, "HEK293 [6]": {"tested_on": "HEK293", "assay": "SAR Analysis of small molecule inhibitors of T-cell specific antigen receptor-induced NF-kB activation in a HEK-293T cell line using a luminescence assay - Set 2. [Related pubchem assays (depositor defined):AID435003, AID435012, AID489026]", "assay_type": "functional, cell-based", "details": "Homo sapiens"}, "[7]": {"assay": "HepG2 cell cytotoxicity, dose response, cytotoxicity control for Shn3 inhibitor project, CellTiter-Glo, cherry-picked (AID 624134)", "assay_type": "functional, cell-based"}, "[8]": {"assay": "cytotoxicity in OV-90 ovarian cancer cells, dose response, PAX8 inhibitor project, cell-based, plate reader, dry powder, SA8 (AID 743149)", "assay_type": "functional"}, "[9]": {"assay": "control 3'UTR Renilla luciferase suppression, dose response, counter-screen for Shn3 inhibitor project, cell-based, Clone20-Shn3RL, cherry-picked (AID 624133)", "assay_type": "functional"}, "[10]": {"molecular_target": "T2, Serine/threonine-protein phosphatase (Candida dubliniensis (strain CD36 / CBS 7987 / NCPF 3949 / NRRLY-17841) (Yeast), UniProt B9W6M3)", "T2 sequence (B9W6M3 whole entry)": "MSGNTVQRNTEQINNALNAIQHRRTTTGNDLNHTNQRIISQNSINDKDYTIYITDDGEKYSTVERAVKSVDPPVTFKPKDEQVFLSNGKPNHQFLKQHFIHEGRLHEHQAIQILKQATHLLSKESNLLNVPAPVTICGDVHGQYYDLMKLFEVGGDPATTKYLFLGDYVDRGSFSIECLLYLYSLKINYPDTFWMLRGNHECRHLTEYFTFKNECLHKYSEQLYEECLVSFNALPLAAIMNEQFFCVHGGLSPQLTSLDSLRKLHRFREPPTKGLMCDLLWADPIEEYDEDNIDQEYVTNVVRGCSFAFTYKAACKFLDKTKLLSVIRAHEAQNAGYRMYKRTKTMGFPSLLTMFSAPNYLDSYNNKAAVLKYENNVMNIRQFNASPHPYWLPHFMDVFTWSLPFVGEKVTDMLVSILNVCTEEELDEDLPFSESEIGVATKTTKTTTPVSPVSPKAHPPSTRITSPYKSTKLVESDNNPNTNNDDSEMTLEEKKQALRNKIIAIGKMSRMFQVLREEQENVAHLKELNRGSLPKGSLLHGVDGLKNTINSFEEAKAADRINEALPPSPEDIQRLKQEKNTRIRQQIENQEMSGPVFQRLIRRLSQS", "assay": "calcineurin pathway inhibitors in yeast reporter, dose response, S. cerevisiae, CDRE-lacZ, luminescence, secondary (AID 2388);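 further: yeast reporter cells carrying a calcineurin-responsive lacZ construct stimulated with calcium chloride; luminescent beta-galactosidase reporter signal in whole cells rather than isolated phosphatase activity; potency for inhibition where a drop in reporter signal means calcineurin blockade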", "assay_type": "functional, cell-based"}, "cells [11]": {"assay": "cells", "assay_type": "functional, cell-based", "remark": "listed apart in the source"}, "[12]": {"molecular_target": "Heat shock protein HSP 90-alpha (Homo sapiens, UniProt P07900)", "assay_type": "functional, organism-based"}, "HEK293 [13]": {"tested_on": "HEK293", "assay": "cytotoxicity in HEK293T NF-kB-Luc cells, SAR follow-up, cytotoxicity control for NF-kB activator project, cell-based, resazurin fluorescence (AID 493251)", "assay_type": "functional", "details": "Homo sapiens"}, "[14]": {"assay": "cytotoxicity in COV434 cells, dose response, cytotoxicity control for PAX8 inhibitor project, cell-based, plate reader, dry powder, SA7 (AID 743145)", "assay_type": "functional"}, "[15]": {"assay": "IGROV1 ovarian cancer cell cytotoxicity, dose response, PAX8 inhibitor project, plate reader, dry powder samples (AID 743043)", "assay_type": "functional, cell-based", "details": "IGROV-1"}, "Jurkat": {"tested_on": "Jurkat", "assay": "SAR Analysis of small molecule inhibitors of T-cell specific antigen receptor-induced NF-kB activation in a Jurkat cell line using a luminescence assay - Set 2. [Related pubchem assays (depositor defined):AID435003, AID435012, AID465]", "assay_type": "functional, cell-based", "details": "Homo sapiens"}, "[16]": {"assay": "inhibitors of intracellular T. cruzi replication, confirmation, NIH3T3 host cells, beta-gal luminescence (AID 2044);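 further: luminescent beta-galactosidase reporter signal from transgenic T. cruzi replicating inside host cells; inhibitors lower the luminescence signal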", "assay_type": "functional, cell-based"}, "[17]": {"assay": "PAX2 cell-based inhibition, dose response, selectivity assay for PAX8 inhibitor project, plate reader, dry powder samples (AID 743048);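 further: HEK293 cells carrying a WT1 promoter luciferase reporter driven by expressed Pax2; potency is for inhibition of Pax2 driven reporter signal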", "assay_type": "functional"}, "[18]": {"assay": "cytotoxicity in OVCAR4 cells, dose response, cytotoxicity control for PAX8 inhibitor project, cell-based, plate reader, dry powder, SA11 (AID 743150)", "assay_type": "functional", "details": "OVCAR-4"}, "[19]": {"assay": "cytotoxicity dependent on PAX8, dose response, cell-based, plate reader, dry powder (AID 743049)", "assay_type": "functional"}, "[20]": {"assay": "CEM21 lymphoblast cell cytotoxicity, dose response, cytotoxicity control for viral fusion inhibitor project, CellTiter-Glo luminescence, cherry-picked (AID 652042);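 further: potency for signal decrease meaning cytotoxicity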", "assay_type": "functional, cell-based"}, "[21]": {"assay": "HepG2 cell cytotoxicity, dose response, cytotoxicity control for non-replicating M. tuberculosis project (AID 489018)", "assay_type": "functional", "details": "Mycobacterium tuberculosis"}, "Nonstructural protein 1": {"molecular_target": "Nonstructural protein 1 (Influenza A virus, UniProt Q194T2)", "sequence (Q194T2 whole entry)": "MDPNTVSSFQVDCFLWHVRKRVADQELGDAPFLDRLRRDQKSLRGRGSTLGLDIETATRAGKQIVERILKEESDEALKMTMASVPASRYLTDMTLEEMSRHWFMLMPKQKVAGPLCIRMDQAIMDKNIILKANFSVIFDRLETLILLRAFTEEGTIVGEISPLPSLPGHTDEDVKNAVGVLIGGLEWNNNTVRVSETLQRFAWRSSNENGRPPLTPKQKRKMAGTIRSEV", "assay_type": "functional, Influenza A virus (A/California/07/2009(H1N1))"}, "[22]": {"assay": "Vero E6 cell cytotoxicity, dose response, cytotoxicity control for non-replicating M. tuberculosis project, secondary assay (AID 492998)", "assay_type": "functional, VeroE6", "details": "Vero C1008"}, "HT-1080": {"tested_on": "HT-1080", "assay": "cytotoxicity in HT1080 fibrosarcoma cells, cell-based, fluorescence readout (AID 620)", "assay_type": "functional", "details": "Homo sapiens"}, "[23]": {"assay": "microbe, parasite or virus in culture", "assay_type": "functional", "details": "Mycobacterium tuberculosis"}, "[24]": {"assay": "inhibitors of clade B AD8 Env fusion, dose response, cell-based, cherry-pick (AID 652062);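 further: potency is for inhibitors of fusion seen as a drop in luminescence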", "assay_type": "functional"}, "[25]": {"assay": "inhibitors of HIV Env-driven cell fusion, dose response, cherry-pick (AID 652057)", "assay_type": "functional, cell-based"}, "[26]": {"assay": "ZM109 Env clade C HIV-1 fusion inhibitors, dose response, HeLa effector, CEM target cells, luciferase, cherry-pick (AID 652058)", "assay_type": "functional, cell-based"}, "[27]": {"molecular_target": "Intestinal-type alkaline phosphatase (Mus musculus, UniProt P24822)", "sequence (P24822 whole entry)": "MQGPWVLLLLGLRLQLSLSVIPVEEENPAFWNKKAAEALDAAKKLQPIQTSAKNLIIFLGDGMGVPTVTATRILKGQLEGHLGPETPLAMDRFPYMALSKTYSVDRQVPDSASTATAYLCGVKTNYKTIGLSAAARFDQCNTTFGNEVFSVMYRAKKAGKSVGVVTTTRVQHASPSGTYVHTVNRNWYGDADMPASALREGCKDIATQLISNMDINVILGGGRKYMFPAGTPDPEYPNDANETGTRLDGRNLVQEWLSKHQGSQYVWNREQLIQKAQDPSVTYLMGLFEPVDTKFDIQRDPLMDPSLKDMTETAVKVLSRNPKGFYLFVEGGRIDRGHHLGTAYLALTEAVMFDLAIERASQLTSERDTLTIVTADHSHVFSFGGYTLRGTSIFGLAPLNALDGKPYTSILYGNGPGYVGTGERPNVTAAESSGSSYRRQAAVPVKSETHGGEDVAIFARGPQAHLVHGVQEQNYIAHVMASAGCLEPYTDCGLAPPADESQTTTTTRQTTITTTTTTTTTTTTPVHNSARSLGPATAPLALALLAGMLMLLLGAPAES", "assay": "PubChem AID 488874", "assay_type": "functional"}, "[28]": {"molecular_target": "Intestinal-type alkaline phosphatase (Homo sapiens, UniProt P09923)", "sequence (P09923 whole entry)": "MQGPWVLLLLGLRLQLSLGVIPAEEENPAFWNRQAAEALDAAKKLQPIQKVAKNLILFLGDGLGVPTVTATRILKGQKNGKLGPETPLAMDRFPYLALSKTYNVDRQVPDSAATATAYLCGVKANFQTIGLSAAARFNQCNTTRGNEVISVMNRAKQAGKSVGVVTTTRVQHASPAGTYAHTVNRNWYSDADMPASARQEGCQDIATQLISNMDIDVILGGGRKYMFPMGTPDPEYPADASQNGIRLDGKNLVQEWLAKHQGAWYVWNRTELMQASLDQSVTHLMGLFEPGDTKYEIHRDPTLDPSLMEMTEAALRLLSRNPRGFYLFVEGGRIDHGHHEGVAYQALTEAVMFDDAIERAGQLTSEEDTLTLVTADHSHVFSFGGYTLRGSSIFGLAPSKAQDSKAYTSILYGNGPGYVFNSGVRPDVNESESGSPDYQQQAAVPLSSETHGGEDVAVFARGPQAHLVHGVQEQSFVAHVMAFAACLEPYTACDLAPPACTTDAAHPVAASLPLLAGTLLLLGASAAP", "assay": "human intestinal alkaline phosphatase activators, dose response, biochemical, luminescence, uHTS hits (AID 463120)", "assay_type": "functional"}, "[29]": {"assay": "Luminescence Cell-Based Dose Response HTS to Identify Inhibitors of 5'UTR Stem-Loop Driven Prion Protein mRNA Translation in H4 Neuroglioblastoma Cells. [Related pubchem assays: 1827 (Project Summary), 1813 (Primary HTS)]", "assay_type": "functional"}, "[30]": {"assay": "human group III sPLA2 inhibitors, dose response, biochemical, QFRET, IC50 (AID 743457);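 further: green fluorescence rise as the enzyme cleaves BODIPY PC-A2 in liposomes; potency for inhibition of the enzyme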"}, "[31]": {"assay": "cytotoxicity in MIN6 insulinoma cells, dose response, cytotoxicity control, cell-based, mouse insulinoma (AID 2122);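 further: confirmatory high-throughput counterscreen run to flag cytotoxic compounds; mouse MIN-6 beta cells carrying an insulin promoter eGFP reporter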", "assay_type": "functional"}, "[32]": {"assay": "inhibitors of SNCA 5'UTR-driven reporter translation, confirmation, H4 neuroglioma cells, luminescence (AID 1988)", "assay_type": "functional, cell-based"}}, "note": "Active and inactive are the calls of the source.", "data": [{"smiles": "O=C(N/N=C1\\C/C(=N\\NC(=O)c2ccncc2)c2ccccc21)c1ccncc1", "values": [{"measurement": "IC50", "setting": "[1]", "result": "5.02 µM (active)"}, {"measurement": "IC50", "setting": "[2]", "result": "1.35 µM (active)"}]}, {"smiles": "CCCCC(=O)NC(c1ccccc1)c1ccc2cccnc2c1O", "note": "(stereo not given)", "values": [{"measurement": "AC50", "setting": "[3]", "result": "10.9 µM (active)"}, {"measurement": "EC50", "setting": "cells [4]", "result": "7.75 µM (active)"}, {"measurement": "EC50", "setting": "[5]", "result": "24.2 µM (active)"}, {"measurement": "IC50", "setting": "HEK293 [6]", "result": "8.62 µM (active)"}, {"measurement": "AC50", "setting": "[7]", "result": "2.44 µM (active)"}, {"measurement": "AC50", "setting": "[8]", "result": "3.88 µM (active)"}, {"measurement": "AC50", "setting": "[9]", "result": "1.31 µM (active)"}, {"measurement": "EC50", "setting": "[10]", "result": "> 180 µM (inactive)"}, {"measurement": "EC50", "setting": "cells [11]", "result": "> 350 µM (not active)"}, {"measurement": "AC50", "setting": "[12]", "result": "25.5 µM (active)"}, {"measurement": "IC50", "setting": "HEK293 [13]", "result": "10.6 µM (active)"}, {"measurement": "AC50", "setting": "[14]", "result": "4.16 µM (active)"}, {"measurement": "AC50", "setting": "[15]", "result": "5.47 µM (active)"}, {"measurement": "IC50", "setting": "Jurkat", "result": "5.62 µM (active)"}, {"measurement": "EC50", "setting": "[16]", "result": "0.502 µM (active)"}, {"measurement": "AC50", "setting": "[17]", "result": "2.15 µM (active)"}, {"measurement": "AC50", "setting": "[18]", "result": "9.22 µM (active)"}, {"measurement": "AC50", "setting": "[19]", "result": "9.11 µM (active)"}]}, {"smiles": "CC(=O)N(Cc1ccc(F)cc1)C1=C(NCCc2ccccc2)C(=O)c2ccccc2C1=O", "values": [{"measurement": "AC50", "setting": "[20]", "result": "2.16 µM (active)"}, {"measurement": "CC50", "setting": "[21]", "result": "5.95 µM (active)"}, {"measurement": "IC50", "setting": "Nonstructural protein 1", "result": "32.2 µM (active)"}, {"measurement": "CC50", "setting": "[22]", "result": "7 µM (active)"}, {"measurement": "EC50", "setting": "HT-1080", "result": "15.6 µM (active)"}, {"measurement": "CC50", "setting": "[23]", "result": "10.9 µM (active)"}, {"measurement": "AC50", "setting": "[24]", "result": "8.23 µM (active)"}, {"measurement": "AC50", "setting": "[25]", "result": "2.45 µM (active)"}, {"measurement": "AC50", "setting": "[26]", "result": "5.61 µM (active)"}]}, {"smiles": "O=C(/C=C/c1cccs1)NC(=S)NNC(=O)c1ccccc1O", "values": [{"measurement": "IC50", "setting": "[27]", "result": "70.4 µM (active)"}, {"measurement": "EC50", "setting": "[28]", "result": "8.8 µM (active)"}, {"measurement": "EC50", "setting": "[29]", "result": "9.65 µM (active)"}, {"measurement": "IC50", "setting": "[30]", "result": "> 122 µM (inactive)"}, {"measurement": "IC50", "setting": "[31]", "result": "2.57 µM (active)"}, {"measurement": "EC50", "setting": "[32]", "result": "> 120 µM (not active)"}]}]}
